Test results as given in publication PMC8722130 (Progress in biophysics and molecular biology, 2021).

Legend:
[1] = molecular target: uracil DNA-glycosylase (UDG) (Homo sapiens, UniProt P13051); assay: co-crystal structure; format: binding
[2] = molecular target: human UDG (mitochondrial, 6xHis; XTAL Biostructures) (Homo sapiens, UniProt P13051-2 82-304); assay: thermal shift
human UDG (mitochondrial, 6xHis; XTAL Biostructures), sequence (P13051 91-313): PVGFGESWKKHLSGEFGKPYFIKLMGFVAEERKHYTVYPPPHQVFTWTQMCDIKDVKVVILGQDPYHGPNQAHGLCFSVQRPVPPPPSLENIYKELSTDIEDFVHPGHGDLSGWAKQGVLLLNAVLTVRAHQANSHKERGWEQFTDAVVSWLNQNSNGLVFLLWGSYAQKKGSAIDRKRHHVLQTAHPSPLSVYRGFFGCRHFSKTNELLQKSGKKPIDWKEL

uracil DNA-glycosylase (UDG), sequence (P13051 whole entry): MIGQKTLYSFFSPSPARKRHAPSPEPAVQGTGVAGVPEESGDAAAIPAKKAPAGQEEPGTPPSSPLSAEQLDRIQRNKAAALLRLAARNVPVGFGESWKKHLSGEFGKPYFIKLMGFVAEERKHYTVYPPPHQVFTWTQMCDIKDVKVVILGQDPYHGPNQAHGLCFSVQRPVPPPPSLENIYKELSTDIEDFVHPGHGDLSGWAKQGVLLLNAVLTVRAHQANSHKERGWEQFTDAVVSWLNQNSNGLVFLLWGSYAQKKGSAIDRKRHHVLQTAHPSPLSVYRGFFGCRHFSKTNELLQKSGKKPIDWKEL

Kd [1] [nM] | Molecule | binding result [2]
< 700 | O=C(O)C1=CC(=C(c2ccc(O)c(C(=O)O)c2)c2ccc(O)c(C(=O)O)c2)C=CC1=O [aurintricarboxylic acid] | –
– | GCACUUAAGAAUUGCAAUUCUUAAGUGC (structured_DNA, U in place of T (deoxyuridine, nine U:A pairs stated)) [uracil DNA hairpin] | binds
